Source: patent publication US9834542B2, “LXR modulators” (BRISTOL-MYERS SQUIBB COMPANY, priority 2013, dated 2017)

Target: T1, LXRβ (Homo sapiens, UniProt P55055)
T1 construct: Co-transfection expression plasmids, comprising full-length LXRα (pCMX-h LXRα[…] or LXRβ (pCMX-hLXRβ)); expressed in transfected cells; host or cells: CV-1 African Green Monkey Kidney Cells
T1 sequence (P55055 1-460): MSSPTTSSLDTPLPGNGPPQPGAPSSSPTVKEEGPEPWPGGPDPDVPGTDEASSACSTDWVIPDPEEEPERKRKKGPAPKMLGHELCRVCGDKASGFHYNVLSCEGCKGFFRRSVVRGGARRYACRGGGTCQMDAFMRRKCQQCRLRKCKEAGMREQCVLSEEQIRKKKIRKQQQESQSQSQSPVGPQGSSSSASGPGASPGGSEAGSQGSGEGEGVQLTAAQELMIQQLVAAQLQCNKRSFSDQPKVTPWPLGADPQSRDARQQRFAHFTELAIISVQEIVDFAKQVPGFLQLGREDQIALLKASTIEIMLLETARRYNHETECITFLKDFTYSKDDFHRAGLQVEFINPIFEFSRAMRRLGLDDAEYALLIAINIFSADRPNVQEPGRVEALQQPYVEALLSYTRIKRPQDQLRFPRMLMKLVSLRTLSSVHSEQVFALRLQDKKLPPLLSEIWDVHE
T1 sequence (P19793 1-462 partner): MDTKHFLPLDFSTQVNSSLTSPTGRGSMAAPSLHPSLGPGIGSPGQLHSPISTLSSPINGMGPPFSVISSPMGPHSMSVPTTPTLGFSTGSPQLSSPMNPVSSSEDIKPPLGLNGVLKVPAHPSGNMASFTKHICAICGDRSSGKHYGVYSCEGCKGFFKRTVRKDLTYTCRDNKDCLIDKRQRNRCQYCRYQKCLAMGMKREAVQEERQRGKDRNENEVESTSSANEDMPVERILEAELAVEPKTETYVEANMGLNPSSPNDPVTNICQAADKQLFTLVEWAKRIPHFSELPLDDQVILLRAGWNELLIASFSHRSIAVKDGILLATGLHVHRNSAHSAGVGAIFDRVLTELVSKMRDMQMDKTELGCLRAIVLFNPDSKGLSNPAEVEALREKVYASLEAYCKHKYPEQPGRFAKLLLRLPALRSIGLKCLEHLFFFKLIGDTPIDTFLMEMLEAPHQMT
Experiment: Co-transfection assay (LXRE luciferase reporter), LXRβ
Format: cell-based
Design: % Efficacy: concentration or dose not given beside the values
Conditions: for EC50: CV-1 cells transfected with pCMX-hLXRβ and LXREx1-Tk-Luciferase, 20 hours incubation; for Emax: read-out: % Efficacy
In short: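 Luciferase output from an LXRE-Tk reporter measured after 20 h, 37 °C compound exposure of transiently transfected CV-1 cells expressing human LXRβ with endogenous RXR. EC50 fitted from 11-point half-log dose responses (mean of ≥2 runs); % efficacy versus maximal response of the reference agonist.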

[1] = LXRβ co-transfection, relative to high control 1-(2,4-difluorobenzyl)-2-oxo-6-(4-phenoxyphenyl)-4-(trifluoromethyl)-1,2-dihydropyridine-3-carbonitrile

SMILES | EC50 [nM] | Emax [1] [%] | % Efficacy [1] [%]
Cc1nc(C(F)(F)F)c(Cl)n1-c1ccc(-c2cc(F)c(CO)c(S(C)(=O)=O)c2)cc1-c1cnnn1-c1ccc(Cl)cc1 [Example 240, {4′-[5-chloro-2-methyl-4-(trifluoromethyl)-1H-imidazol-1-yl]-3′-[1-(4-chlorophenyl)-1H-1,2,3-triazol-5-yl]-3-fluoro-5-(methylsulfonyl)biphenyl-4-yl}methanol] | 142 | 129 | –
Cc1nc(-c2cc(-c3cc(F)c(CO)c(S(C)(=O)=O)c3)ccc2-n2cc(C(F)(F)F)nc2C)c(-c2ccc3c(c2)C(O)C(F)(F)O3)o1 (centres unmarked) [Example 487, 2,2-difluoro-5-(4-(3′-fluoro-4′-(hydroxymethyl)-4-(2-methyl-4-(trifluoromethyl)-1H-imidazol-1-yl)-5′-(methylsulfonyl)biphenyl-3-yl)-2-methyloxazol-5-yl)-2,3-dihydrobenzofuran-3-ol] | 815 | 59 | –
Cc1cc(-c2cc(-c3ccc(CO)c(S(C)(=O)=O)c3)ccc2-n2cc(C(F)(F)F)nc2C)n(-c2ccc3c(c2)OC(F)(F)O3)n1 [Example 300, (3′-(1-(2,2-difluorobenzo[d][1,3]dioxol-5-yl)-3-methyl-1H-pyrazol-5-yl)-4′-(2-methyl-4-(trifluoromethyl)-1H-imidazol-1-yl)-3-(methylsulfonyl)biphenyl-4-yl)methanol] | 12 | 61 | –
Cc1cc(-c2oc(C)nc2-c2cc(-c3cc(F)c(CO)c(S(C)(=O)=O)c3)ccc2-n2cc(C(F)(F)F)nc2C)cc(Cl)n1 [Example 432, (3′-(5-(2-chloro-6-methylpyridin-4-yl)-2-methyloxazol-4-yl)-3-fluoro-4′-(2-methyl-4-(trifluoromethyl)-1H-imidazol-1-yl)-5-(methylsulfonyl)biphenyl-4-yl)methanol] | 45 | – | 83
Cc1nc(C(F)(F)F)cn1-c1ccc(-c2cccc(S(C)(=O)=O)c2)cc1-c1oc(CCN(C)C)nc1-c1ccc(OC(F)(F)F)cc1 [Example 628, N,N-dimethyl-2-(5-(4-(2-methyl-4-(trifluoromethyl)-1H-imidazol-1-yl)-3′-(methylsulfonyl)-[1,1′-biphenyl]-3-yl)-4-(4-(trifluoromethoxy)phenyl)oxazol-2-yl)ethanamine] | 412 | 82 | –
Cc1nc(C(F)(F)F)cn1-c1ccc(-c2cccc(S(C)(=O)=O)c2)cc1-c1nc(C(F)(F)F)cn1-c1ccc2c(c1)OC(F)(F)O2 [Example 640, 1-(2,2-difluorobenzo[d][1,3]dioxol-5-yl)-2-(4-(2-methyl-4-(trifluoromethyl)-1H-imidazol-1-yl)-3′-(methylsulfonyl)biphenyl-3-yl)-4-(trifluoromethyl)-1H-imidazole] | 218 | 61 | –
Cc1nc(-c2cc(-c3cccc(S(=O)(=O)C(F)F)c3)ccc2-n2cc(C(F)(F)F)nc2C)c(-c2ccc3c(c2)OC(F)(F)O3)o1 [Example 417, 5-(2,2-difluorobenzo[d][1,3]dioxol-5-yl)-4-(3′-(difluoromethylsulfonyl)-4-(2-methyl-4-(trifluoromethyl)-1H-imidazol-1-yl)biphenyl-3-yl)-2-methyloxazole] | 43 | 56 | –
CCc1nc(-c2cc(-c3cc(F)c(CO)c(S(C)(=O)=O)c3)ccc2-n2cc(C(F)(F)F)nc2C)c(-c2ccc3c(c2)OC(F)(F)O3)o1 [Example 479, (3′-(5-(2,2-difluorobenzo[d][1,3]dioxol-5-yl)-2-ethyloxazol-4-yl)-3-fluoro-4′-(2-methyl-4-(trifluoromethyl)-1H-imidazol-1-yl)-5-(methylsulfonyl)biphenyl-4-yl)methanol] | 30 | 81 | –
Cc1nc(Cl)cn1-c1ccc(-c2cccc(S(C)(=O)=O)c2)cc1-n1nncc1-c1ccc(Cl)cc1 [Example 150, 1-[4-(4-chloro-2-methyl-1H-imidazol-1-yl)-3′-(methylsulfonyl)biphenyl-3-yl]-5-(4-chlorophenyl)-1H-1,2,3-triazole] | 1290 | 56 | –
Cc1nc(-c2cc(-c3cccc(S(C)(=O)=O)c3)ccc2-n2cc(C(F)(F)F)nc2C)c(-c2ccc(OCC(F)F)c(F)c2)o1 [Example 425, 5-(4-(2,2-difluoroethoxy)-3-fluorophenyl)-2-methyl-4-(4-(2-methyl-4-(trifluoromethyl)-1H-imidazol-1-yl)-3′-(methylsulfonyl)biphenyl-3-yl)oxazole] | 203 | 71 | –
Cc1nc(C(F)(F)F)cn1-c1ccc(-c2cc(Cl)c(CO)c(S(C)(=O)=O)c2)cc1-n1nncc1-c1ccc(Cl)cc1Cl [Example 18, {3-chloro-3′-[5-(2,4-dichlorophenyl)-1H-1,2,3-triazol-1-yl]-5-(methylsulfonyl)-4′-[2-methyl-4-(trifluoromethyl)-1H-imidazol-1-yl]biphenyl-4-yl}methanol] | 283 | 62 | –

The remaining compounds from weak to strong by EC50, led by results:

EC50 [nM] | Emax [1] [%] | % Efficacy [1] [%] | SMILES
865 | 118 | – | CCc1nc(C(F)(F)F)cn1-c1ccc(-c2cccc(S(C)(=O)=O)c2)cc1-n1nncc1-c1ccc(OC(F)(F)F)cc1 [Example 227, 1-(4-(2-ethyl-4-(trifluoromethyl)-1H-imidazol-1-yl)-3′-(methylsulfonyl)-[1,1′-biphenyl]-3-yl)-5-(4-(trifluoromethoxy)phenyl)-1H-1,2,3-triazole]
836 | 51 | – | Cc1nc(-c2cc(-c3cccc(C4(C(N)=O)CC4)c3)ccc2-n2cc(C(F)(F)F)nc2C)c(-c2ccc3c(c2)OC(F)(F)O3)o1 [Example 446, 1-(3′-(5-(2,2-difluorobenzo[d][1,3]dioxol-5-yl)-methyloxazol-4-yl)-4′-(2-methyl-4-(trifluoromethyl)-1H-imidazol-1-yl)biphenyl-3-yl)cyclopropanecarboxamide]
638 | 89 | – | Cc1nc(C(C)(F)F)cn1-c1ccc(-c2ccc(CO)c(S(C)(=O)=O)c2)cc1-n1nncc1-c1ccc(OC(F)(F)F)cc1 [Example 178, {4′-[4-(1,1-difluoroethyl)-2-methyl-1H-imidazol-1-yl]-3-(methylsulfonyl)-3′-(5-{4-[(trifluoromethyl)oxy]phenyl}-1H-1,2,3-triazol-1-yl)biphenyl-4-yl}methanol]
410 | 80 | – | COc1ncc(-c2oc(C)nc2-c2cc(-c3cccc(S(C)(=O)=O)c3)ccc2-n2cc(C(F)(F)F)nc2C)cc1F [Example 439, 5-(5-fluoro-6-methoxypyridin-3-yl)-2-methyl-4-(4-(2-methyl-4-(trifluoromethyl)-1H-imidazol-1-yl)-3′-(methylsulfonyl)biphenyl-3-yl)oxazole]
223 | 110 | – | Cc1nc(C(F)(F)F)cn1-c1ccc(-c2cc(F)c(CO)c(S(C)(=O)=O)c2)cc1-c1cnnn1-c1ccc(OC(F)(F)F)cc1 [Example 244, [3-fluoro-5-(methylsulfonyl)-4′-[2-methyl-4-(trifluoromethyl)-1H-imidazol-1-yl]-3′-(1-{4-[(trifluoromethyl)oxy]phenyl}-1H-1,2,3-triazol-5-yl)biphenyl-4-yl]methanol]
89 | 70 | – | Cc1nc(-c2cc(-c3ccc(CO)c(S(C)(=O)=O)c3)ccc2-n2cc(C(F)(F)F)nc2C)c(-c2cc(F)c(OC(F)F)c(F)c2)o1 [Example 469, (3′-(5-(4-(difluoromethoxy)-3,5-difluorophenyl)-2-methyloxazol-4-yl)-4′-(2-methyl-4-(trifluoromethyl)-1H-imidazol-1-yl)-3-(methylsulfonyl)biphenyl-4-yl)methanol]
45 | 71 | – | Cc1nc(-c2cc(-c3cc(F)c(CO)c(S(C)(=O)=O)c3)ccc2-n2cc(C(F)(F)F)nc2C)c(-c2ccc(C)c(F)c2)o1 [Example 503, (3-fluoro-3′-(5-(3-fluoro-4-methylphenyl)-2-methyloxazol-4-yl)-4′-(2-methyl-4-(trifluoromethyl)-1H-imidazol-1-yl)-5-(methylsulfonyl)biphenyl-4-yl)methanol]
43 | 88 | – | Cc1nc(-c2cc(-c3ccc(CO)c(S(C)(=O)=O)c3)ccc2-n2cc(C(F)(F)F)nc2C)c(-c2ccc(OC(F)F)c(F)c2)o1 [Example 402, (3′-(5-(4-(difluoromethoxy)-3-fluorophenyl)-2-methyloxazol-4-yl)-4′-(2-methyl-4-(trifluoromethyl)-1H-imidazol-1-yl)-3-(methylsulfonyl)biphenyl-4-yl)methanol]
